Results: PubChem BioAssay (NCI)
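Briefly, cells in 96-well plates were exposed to five compound concentrations for 48 h, and endpoints were estimated by linear interpolation. GI50 = concentration required for 50% inhibition of growth. TGI is the concentration that stops growth completely.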

Columns and labels:
Test in all cases: growth of human tumour cells (NCI), 48 h
[1] = system: 786-0 renal
[2] = system: A498 renal
[3] = system: A549 NSCLC
[4] = system: ACHN renal
[5] = system: CAKI-1 renal
[6] = system: CCRF-CEM leukemia
[7] = system: COLO 205 colon
[8] = system: DU-145 prostate
[9] = system: EKVX NSCLC
[10] = system: HCC-2998 colon
[11] = system: HCT-116 colon
[12] = system: HCT-15 colon
[13] = system: HL-60(TB) leukemia
[14] = system: HOP-62 NSCLC
[15] = system: HOP-92 NSCLC
[16] = system: HS 578T breast
[17] = system: HT29 colon
[18] = system: IGROV1 ovarian
[19] = system: K-562 leukemia
[20] = system: KM12 colon
[21] = system: LOX IMVI melanoma
[22] = system: M14 melanoma
[23] = system: MALME-3M melanoma
[24] = system: MCF7 breast
[25] = system: MDA-MB-231 breast
[26] = system: MDA-MB-435
[27] = system: MOLT-4 leukemia
[28] = system: NCI-H226 lung
[29] = system: NCI-H23 lung
[30] = system: NCI-H460 lung
[31] = system: NCI-H522 lung
[32] = system: NCI/ADR-RES ovarian
[33] = system: OVCAR-3 ovarian
[34] = system: OVCAR-4 ovarian
[35] = system: OVCAR-5 ovarian
[36] = system: PC-3 prostate
[37] = system: RPMI-8226 leukemia
[38] = system: RXF 393 renal
[39] = system: SF-268 CNS
[40] = system: SF-295 CNS
[41] = system: SF-539 CNS
[42] = system: SK-MEL-2 melanoma
[43] = system: SK-MEL-28 melanoma
[44] = system: SK-MEL-5 melanoma
[45] = system: SK-OV-3 ovarian
[46] = system: SNB-75 CNS
[47] = system: SR leukemia
[48] = system: SW-620 colon
[49] = system: T-47D breast
[50] = system: TK-10 renal
[51] = system: U251 CNS
[52] = system: UACC-62 melanoma
[53] = system: UO-31 renal
[54] = system: BT-549 breast
[55] = system: OVCAR-8 ovarian
[56] = system: SN12C renal
[57] = system: SNB-19 CNS
[58] = system: UACC-257 melanoma

COc1cccc2c1NC(=O)Cc1c-2[nH]c2ccccc12
TGI [1]: > 100 µM | TGI [2]: > 100 µM | TGI [3]: > 100 µM | TGI [4]: > 100 µM | TGI [5]: > 100 µM | TGI [6]: > 100 µM | TGI [7]: > 100 µM | TGI [8]: > 100 µM | TGI [9]: > 100 µM | TGI [10]: > 100 µM | TGI [11]: […] | TGI [12]: > 100 µM | TGI [13]: > 100 µM | TGI [14]: > 100 µM | TGI [15]: > 100 µM | TGI [16]: > 100 µM | TGI [17]: > 100 µM | TGI [18]: > 100 µM | TGI [19]: > 100 µM | TGI [20]: > 100 µM | TGI [21]: > 100 µM | TGI [22]: > 100 µM | TGI [23]: > 100 µM | TGI [24]: > 100 µM | TGI [25]: > 100 µM | TGI [26]: > 100 µM | TGI [27]: > 100 µM | TGI [28]: > 100 µM | TGI [29]: > 100 µM | TGI [30]: > 100 µM | TGI [31]: > 100 µM | TGI [32]: > 100 µM | TGI [33]: > 100 µM | TGI [34]: > 100 µM | TGI [35]: > 100 µM | TGI [36]: > 100 µM | TGI [37]: > 100 µM | TGI [38]: > 100 µM | TGI [39]: > 100 µM | TGI [40]: > 100 µM | TGI [41]: > 100 µM | TGI [42]: > 100 µM | TGI [43]: > 100 µM | TGI [44]: > 100 µM | TGI [45]: > 100 µM | TGI [46]: > 100 µM | TGI [47]: > 100 µM | TGI [48]: > 100 µM | TGI [49]: > 100 µM | TGI [50]: > 100 µM | TGI [51]: > 100 µM | TGI [52]: > 100 µM | TGI [53]: > 100 µM

COC(=O)c1cc(NC(=O)c2cc(NC(=O)c3cc([N+](=O)[O-])n(C)c3)cn2C)cn1C
GI50 [1]: > 100 µM | TGI [1]: > 100 µM | GI50 [2]: 84 µM | TGI [2]: > 100 µM | GI50 [3]: 64.1 µM | TGI [3]: > 100 µM | GI50 [4]: 2.53 µM | TGI [4]: 53.5 µM | GI50 [54]: 40.1 µM | TGI [54]: > 100 µM | GI50 [5]: > 100 µM | TGI [5]: > 100 µM | GI50 [6]: 54 µM | TGI [6]: > 100 µM | GI50 [7]: 45.9 µM | TGI [7]: > 100 µM | GI50 [9]: > 100 µM | TGI [9]: > 100 µM | GI50 [10]: 4.26 µM | TGI [10]: 38.2 µM | GI50 [11]: 31.8 µM | TGI [11]: > 100 µM | GI50 [12]: 44.8 µM | TGI [12]: > 100 µM | GI50 [14]: 6.4 µM | TGI [14]: > 100 µM | GI50 [15]: 13.2 µM | TGI [15]: 85.2 µM | GI50 [16]: > 100 µM | TGI [16]: > 100 µM | GI50 [17]: 7.74 µM | TGI [17]: 31 µM | GI50 [18]: > 100 µM | TGI [18]: > 100 µM | GI50 [19]: > 100 µM | TGI [19]: > 100 µM | GI50 [20]: 80.8 µM | TGI [20]: > 100 µM | GI50 [21]: 10.7 µM | TGI [21]: 85.9 µM | GI50 [22]: 15.2 µM | TGI [22]: > 100 µM | GI50 [24]: > 100 µM | TGI [24]: > 100 µM | GI50 [25]: 51 µM | TGI [25]: > 100 µM | GI50 [26]: > 100 µM | TGI [26]: > 100 µM | GI50 [28]: 39.9 µM | TGI [28]: > 100 µM | GI50 [29]: 24.5 µM | TGI [29]: > 100 µM | GI50 [30]: > 100 µM | TGI [30]: > 100 µM | GI50 [31]: 58.9 µM | TGI [31]: > 100 µM | GI50 [32]: > 100 µM | TGI [32]: > 100 µM | GI50 [33]: > 100 µM | TGI [33]: > 100 µM | GI50 [35]: 30.9 µM | TGI [35]: > 100 µM | GI50 [55]: > 100 µM | TGI [55]: > 100 µM | GI50 [36]: > 100 µM | TGI [36]: > 100 µM | GI50 [37]: > 100 µM | TGI [37]: > 100 µM | GI50 [38]: > 100 µM | TGI [38]: > 100 µM | GI50 [39]: > 100 µM | TGI [39]: > 100 µM | GI50 [40]: 32.8 µM | TGI [40]: > 100 µM | GI50 [41]: 56.1 µM | TGI [41]: > 100 µM | GI50 [42]: > 100 µM | TGI [42]: > 100 µM | GI50 [44]: 5.03 µM | TGI [44]: 59 µM | GI50 [45]: 45.3 µM | TGI [45]: > 100 µM | GI50 [56]: > 100 µM | TGI [56]: > 100 µM | GI50 [57]: 34.2 µM | TGI [57]: > 100 µM | GI50 [47]: 39.3 µM | TGI [47]: > 100 µM | GI50 [48]: > 100 µM | TGI [48]: > 100 µM | GI50 [49]: > 100 µM | TGI [49]: > 100 µM | GI50 [50]: 46.7 µM | TGI [50]: > 100 µM | GI50 [51]: 32.7 µM | TGI [51]: > 100 µM | GI50 [58]: > 100 µM | TGI [58]: > 100 µM | GI50 [52]: 23.8 µM | TGI [52]: > 100 µM | GI50 [53]: > 100 µM | TGI [53]: > 100 µM
